The source of these data is ChEMBL document CHEMBL4725392, “Orally Bioavailable Small-Molecule CD73 Inhibitor (OP-5244) Reverses Immunosuppression through Blockade of Adenosine Production” (J Med Chem, 2020).

The structures appear in SMILES notation.

The target in data set [1] is T1, 5'-nucleotidase (Homo sapiens, UniProt P21589). Description: Inhibition of human C-terminal His6-tagged CD73 expressed in CHO cells preincubated for 15 mins followed by AMP addition and measured after 10 mins by malachite green reagent based assay. It is filed as cell-based.
A short description of data set [2]: AUC infinity in rat at 50 mg/kg, po. Also on record: time infinity, route oral, dose 50 mg/kg. The following applies: in vivo. The class given is ADME, organism-based.
Data set [3] is described as follows: Terminal half life in rat at 50 mg/kg, po. The class given is ADME, organism-based. As to conditions: in vivo, read-out: beta t1/2 (converted).
The nature of data set [4]: Cmax in rat at 50 mg/kg, po. The class given is ADME, organism-based. Also on record: route oral, dose 50 mg/kg. The following applies: in vivo.
Data set [5] has as its target T1, 5'-nucleotidase. Description: Inhibition of CD73 in human NCI-H1568 cells assessed as reduction in AMP-induced ADO expression preincubated for 15 mins followed by AMP addition and measured after 1 hr by LC-MS/MS analysis. The class given is cell-based.
Data set [6] has as its target T2, 5'-nucleotidase (Mus musculus, UniProt Q61503).
T2 sequence (Q61503 whole entry): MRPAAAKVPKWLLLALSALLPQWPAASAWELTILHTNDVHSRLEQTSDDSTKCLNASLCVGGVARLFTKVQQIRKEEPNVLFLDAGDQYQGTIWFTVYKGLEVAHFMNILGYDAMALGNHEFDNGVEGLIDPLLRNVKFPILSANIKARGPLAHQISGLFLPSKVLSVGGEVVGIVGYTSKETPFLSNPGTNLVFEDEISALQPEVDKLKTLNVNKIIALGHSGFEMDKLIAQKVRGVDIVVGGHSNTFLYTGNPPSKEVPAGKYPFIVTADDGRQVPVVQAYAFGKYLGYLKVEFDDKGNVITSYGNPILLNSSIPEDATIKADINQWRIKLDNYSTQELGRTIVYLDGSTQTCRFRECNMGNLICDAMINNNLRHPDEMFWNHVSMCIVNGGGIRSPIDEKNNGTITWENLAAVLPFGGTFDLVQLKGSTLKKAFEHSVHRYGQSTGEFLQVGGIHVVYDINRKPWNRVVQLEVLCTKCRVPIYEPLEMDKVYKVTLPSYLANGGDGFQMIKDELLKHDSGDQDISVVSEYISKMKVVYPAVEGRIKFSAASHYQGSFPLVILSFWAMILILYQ
Description: Inhibition of CD73 in mouse EMT6 cells assessed as reduction in AMP-induced ADO expression preincubated for 15 mins followed by AMP addition and measured after 1 hr by LC-MS/MS analysis. The class given is cell-based.

The nature of data set [7]: AUC infinity in mouse at 200 mg/kg, po. The class given is ADME, organism-based. Also on record: route oral, time infinity, dose 200 mg/kg. The following applies: in vivo.
The nature of data set [8]: Cmax in mouse at 200 mg/kg, po. It is filed as ADME, organism-based. Also on record: route oral, dose 200 mg/kg. The following applies: in vivo.
Data set [9] is described as follows: Terminal half life in mouse at 200 mg/kg, po. It is filed as ADME, organism-based. The following applies: in vivo, read-out: beta t1/2 (converted).

T1 sequence (P21589 whole entry): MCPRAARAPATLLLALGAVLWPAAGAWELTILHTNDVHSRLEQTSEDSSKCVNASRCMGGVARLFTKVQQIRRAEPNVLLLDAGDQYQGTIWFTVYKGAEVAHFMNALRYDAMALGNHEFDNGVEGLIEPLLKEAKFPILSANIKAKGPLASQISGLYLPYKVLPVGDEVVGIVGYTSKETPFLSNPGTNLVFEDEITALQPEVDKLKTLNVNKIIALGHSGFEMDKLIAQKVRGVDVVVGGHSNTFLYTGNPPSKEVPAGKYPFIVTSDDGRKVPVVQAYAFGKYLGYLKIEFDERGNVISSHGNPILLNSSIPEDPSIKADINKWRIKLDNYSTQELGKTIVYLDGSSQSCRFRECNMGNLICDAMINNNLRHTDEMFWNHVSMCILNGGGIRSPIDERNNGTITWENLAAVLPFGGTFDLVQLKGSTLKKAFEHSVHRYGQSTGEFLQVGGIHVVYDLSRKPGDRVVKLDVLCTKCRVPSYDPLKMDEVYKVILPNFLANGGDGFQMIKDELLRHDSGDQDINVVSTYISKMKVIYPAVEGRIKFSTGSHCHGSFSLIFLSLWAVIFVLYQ

The term IC50 denotes the concentration needed to halve the response being measured. The low end stands for higher potency, the high end for lower potency. In general, AUC(0-inf) refers to the area under the concentration-time curve extrapolated to infinity. Low values mean less exposure, high ones more exposure. For orientation: Cmax means the highest concentration seen after dosing. `O=P(O)(O)CS(=O)(=O)C[C@H]1O[C@@H](n2ncc3c(NCc4ccccc4Cl)nc(Cl)nc32)[C@H](O)[C@@H]1O` showed an IC50 in data set [1] of 13 nM. In data set [2], the AUC(0-inf) is 0.54 µM·h. Further, the half-life in data set [3] is 3 h. In data set [4], this molecule registered a Cmax of 0.06 µM.
Broadly, the EC50 is the concentration needed to bring the measured effect to its halfway point. Take `Nc1ncnc2c1ncn2[C@@H]1O[C@H](COP(=O)(O)CP(=O)(O)O)[C@@H](O)[C@H]1O` [PHOSPHOMETHYLPHOSPHONIC ACID ADENOSYL ESTER]: in data set [1], the IC50 was 2650 nM. Moreover, the EC50 in data set [5] is 16300 nM.
`O=P(O)(O)C(CO)(CO)OC[C@H]1O[C@@H](n2ncc3c(NC4CCCC4)nc(Cl)nc32)[C@H](O)[C@@H]1O` had an IC50 in data set [1] of 0.57 nM. Also, the EC50 in data set [6] turned out to be 46 nM; in data set [5], 3.7 nM. Further, in [7], the AUC(0-inf) stood at 95.6 µM·h. In data set [8], this molecule returned a Cmax of 67.4 µM. The half-life in data set [9] was 3.3 h.
In data set [1], `CN(Cc1ccccc1)c1nc(Cl)nc2c1ncn2[C@@H]1O[C@H](COP(=O)(O)CP(=O)(O)O)[C@@H](O)[C@H]1O` returned an IC50 of 3 nM.
Still for that read-out and setting: the figure for `O=P(O)(O)C(OC[C@H]1O[C@@H](n2ncc3c(NC4CCCC4)nc(Cl)nc32)[C@H](O)[C@@H]1O)c1nnn[nH]1` (mixture of isomers) is 28 nM; for `CSCC(C)(OC[C@H]1O[C@@H](n2ncc3c(NC4CCCC4)nc(Cl)nc32)[C@H](O)[C@@H]1O)P(=O)(O)O` (mixture of isomers) it is 10 nM.
For the molecule `C[C@H](Nc1cc(Cl)nc2c1cnn2[C@@H]1O[C@H](COP(=O)(O)CP(=O)(O)O)[C@@H](O)[C@H]1O)c1ccccc1F`, the EC50 in [6] came out at 198 nM.
`O=C(O)C(OC[C@H]1O[C@@H](n2ncc3c(NC4CCCC4)nc(Cl)nc32)[C@H](O)[C@@H]1O)P(=O)(O)O` (mixture of isomers) registered an IC50 in data set [1] of 108 nM.
`C[C@@](CO)(OC[C@H]1O[C@@H](n2ncc3c(NC4CCCC4)nc(Cl)nc32)[C@H](O)[C@@H]1O)P(=O)(O)O` had an IC50 in data set [1] of 0.51 nM. In addition, the values for the EC50 in data set [6] and in data set [5] were 41 nM and 6.9 nM, respectively. The molecule further showed an AUC(0-inf) in data set [7] of 54.2 µM·h. This molecule also displayed a Cmax in data set [8] of 54.9 µM. Besides, the half-life in data set [9] was 2.88 h.
`COP(=O)(O)CP(=O)(OC)OC[C@H]1O[C@@H](n2ncc3c(NCc4ccccc4Cl)nc(Cl)nc32)[C@H](O)[C@@H]1O` (stereo not given in full): the IC50 in data set [1] was 2870 nM.
For `CC(CCO)(OC[C@H]1O[C@@H](n2ncc3c(NC4CCCC4)nc(Cl)nc32)[C@H](O)[C@@H]1O)P(=O)(O)O` (mixture of isomers), the IC50 in [1] amounted to 31 nM.
Turning to `CS(=O)(=O)C(OC[C@H]1O[C@@H](n2ncc3c(NC4CCCC4)nc(Cl)nc32)[C@H](O)[C@@H]1O)P(=O)(O)O` (mixture of isomers), the IC50 in [1] was found to be 193 nM.
`O=P(O)(O)COC[C@H]1O[C@@H](n2ncc3c(NCc4ccccc4Cl)nc(Cl)nc32)[C@H](O)[C@@H]1O` had an IC50 in data set [1] of 29 nM. The molecule also came in with an AUC(0-inf) in data set [2] of 0.66 µM·h. For the same molecule, in data set [3], the half-life is 1.9 h. The Cmax in data set [4] turned out to be 0.11 µM.
